Assays:
Type in all cases: cell-based
[1] = Cytotoxicity, live cells by flow cytometry, Jurkat cells; conditions: human
Description: (§1) H9, Jurkat and undifferentiated U937 and THP-1 (PMA^−) cells (6 × 10^5 cells/mL) were treated with increasing concentrations of nucleoside analogues (0–200 μM; except CFB, 0–1.6 μM) and incubated at 37 °C in 5% CO2 for 48 h. Medium was then replaced and cells were further incubated for 72 h. Non-dividing U937 and THP-1 (PMA^+) cells (6 × 10^5 cells/mL) were differentiated by addition of 100 nM phorbol-12-myristate-13-acetate (PMA^+) for 48 h and then treated with increasing concentrations of nucleoside analogues as described above. The percentage of live cells was determined by flow cytometry using Live/Dead fixable blue-fluorescent dyes (Invitrogen) and a Fortessa X20 analyser (BD Biosciences). Data were analysed using the FlowJo software suite.
(§2) The cytotoxic concentration of nucleoside analogue that inhibits cell viability by 50% (CC50) and the effective concentration of nucleoside analogue that inhibits infection of cells by 50% (EC50) were calculated for each independent experiment by non-linear regression using GraphPad Prism v6.00 for Windows (GraphPad Software, San Diego, CA). Non-ambiguous values were subjected to a replicate test to calculate confidence intervals of 95% (95% CI). CC50 and EC50 values were determined for at least two independent experiments for each nucleoside analogue and a selectivity index (SI) also calculated, (SI = CC50/EC50). EC50 values for each replicate were used to perform an unpaired two-tailed t-test to determine significant differences between U937 cells expressing SAMHD1 wt or HD206-7AA mutant and THP-1 cells expressing Vpx or untransduced cells. P values of <0.005 were considered statistically significant.

[2] = tested on: HIV-1-GFP; experiment: Anti-HIV-1 activity in U937 cells transduced with wt SAMHD1 or HD206-7AA mutant
Description: Antiviral assays were further performed in monocytoid cells transduced with YFP-expressing VLPs containing WT SAMHD1, HD206-7AA or Vpx. Briefly, U937 cells (6 × 10^5 cells/mL) were transduced with WT SAMHD1-YFP or HD206-7AA-YFP VLPs by spinoculation at 800 × g for 90 min in the presence of 1 μg/mL polybrene. Similarly, THP-1 cells (6 × 10^5 cells/mL) were transduced with Vpx-YFP VLPs by spinoculation at 800 × g for 90 min in the presence of 1 μg/mL polybrene. Cells were incubated at 37 °C in 5% CO2 and after 72 h, PMA^+ cells (6 × 10^5 cells/mL) were treated with 100 nM PMA and PMA^− cells (7.5 × 10^4 cells/mL) were left untreated. Cells were then incubated at 37 °C in 5% CO2 for 48 h. Nucleoside analogues were added at increasing concentrations (0–200 μM; except CFB, 0–1.6 μM) and cells were further incubated for 48 h. PMA^− cells were then infected with HIV-1-GFP by spinoculation at 800 × g for 90 min in the presence of 1 μg/mL polybrene, PMA^+ cells were infected with HIV-1-GFP in the presence of 1 μg/mL polybrene only. Cells were incubated for 72 h at 37 °C in 5% CO2 and then analysed by two-colour flow cytometry using a Fortessa X20 analyser (BD Biosciences). Data were analysed using the FlowJo software suite.
as §2

[3] = tested on: HIV-1-GFP; experiment: microbe, parasite or virus in culture
Description: H9 and Jurkat cells (6 × 10^5 cells/mL) were treated with increasing concentrations of nucleoside analogues (0–200 μM; except CFB, 0–1.6 μM) and incubated for 4 h at 37 °C in 5% CO2. Cells were then infected with HIV-1-GFP by spinoculation at 800 × g for 90 min in the presence of 1 μg/mL polybrene, and further incubated at 37 °C in 5% CO2 for 72 h. Undifferentiated U937 and THP-1 (PMA^−) cells (6 × 10^5 cells/mL) were treated with increasing concentrations of nucleoside analogues (0–200 μM; except CFB, 0–1.6 μM) and incubated at 37 °C in 5% CO2 for 48 h. Cells were then infected with HIV-1-GFP by spinoculation at 800 × g for 90 min in the presence of 1 μg/mL polybrene, and further incubated at 37 °C in 5% CO2 for 72 h. Non-dividing U937 and THP-1 (PMA^+) cells (6 × 10^5 cells/mL) were differentiated by addition of 100 nM PMA (PMA^+) for 48 h and treated with increasing concentrations of nucleoside analogues as described above. Cells were then infected with HIV-1-GFP in the presence of 1 μg/mL polybrene and further incubated at 37 °C in 5% CO2 for 72 h. The percentage of GFP^+cells was determined by one-colour flow cytometry using a Fortessa X20 analyser (BD Biosciences) and the data analysed using the FlowJo software suite.
Non-ambiguous values were subjected to a replicate test to calculate confidence intervals of 95% (95% CI). CC50 and EC50 values were determined for at least two independent experiments for each nucleoside analogue and a selectivity index (SI) also calculated, (SI = CC50/EC50). EC50 values for each replicate were used to perform an unpaired two-tailed t-test to determine significant differences between U937 cells expressing SAMHD1 wt or HD206-7AA mutant and THP-1 cells expressing Vpx or untransduced cells. P values of <0.005 were considered statistically significant.

[4] = Cytotoxicity, live cells by flow cytometry, THP-1 cells (PMA−/PMA+); conditions: human
Description: as §1, §2

[5] = in vitro; conditions: human
Description: as §1, §2

[6] = tested on: THP-1 cells; experiment: Cytotoxicity, live cells by flow cytometry, THP-1 cells (PMA−/PMA+); conditions: human, 48 h
Description: as §1, §2

[7] = Human immunodeficiency virus 1, U-937, read-out: EC50 [95% CI], U937 PMA+, HD206/7AA+ population
[8] = Human immunodeficiency virus 1, U-937, read-out: EC50 [95% CI], U937 PMA+, SAMHD1+ population
[9] = Human immunodeficiency virus 1, U-937, read-out: EC50 [95% CI], U937 PMA−, HD206/7AA+ population
[10] = Human immunodeficiency virus 1, U-937, read-out: EC50 [95% CI], U937 PMA−, SAMHD1+ population
[11] = Human immunodeficiency virus 1, THP-1, read-out: EC50 [95% CI], THP1 PMA+
[12] = Human immunodeficiency virus 1, THP-1, read-out: EC50 [95% CI], THP1 PMA−
[13] = Human immunodeficiency virus 1, U-937, read-out: EC50 [95% CI], U937 PMA+
[14] = Human immunodeficiency virus 1, U-937, read-out: EC50 [95% CI], U937 PMA−
[15] = U937 PMA−, HD206/7AA+ population

Row | SMILES | CC50 at 48 h ([1]; Jurkat cells, read-out: CC50) | EC50 [2, 7] | EC50 [2, 8] | EC50 [2, 9] | EC50 [2, 10] | Fold (EC50 HD206/7AA vs SAMHD1) ([2]; U937 PMA+) | Fold (EC50 HD206/7AA vs SAMHD1) ([2]; U937 PMA−) | EC50 [3, 11] | EC50 [3, 12] | EC50 [3, 13] | EC50 [3, 14] | SI, selectivity index CC50/EC50 ([3]; THP-1 PMA+) | SI, selectivity index CC50/EC50 ([3]; THP-1 PMA−) | SI, selectivity index CC50/EC50 ([3]; U937 PMA+) | SI, selectivity index CC50/EC50 ([3]; U937 PMA−) | CC50 at 48 h [1] | CC50 at 48 h [4] | CC50 [6] | EC50 [95% CI] [2, 15] | EC50 [95% CI] ([2]; U937 PMA−, SAMHD1+ population) | further results
1 | Cc1nnc(C(=O)NC(C)(C)c2nc(C(=O)NCc3ccc(F)cc3)c(O)c(=O)n2C)o1 [RAL, Raltegravir] | > 200 µM | 0.075 µM | 0.07 µM | 0.012 µM | 0.011 µM | 1 fold | 1 fold | 0.037 µM | 0.044 µM | 0.063 µM | 0.013 µM | > 5405 | > 4545 | > 3175 | > 15385 |  |  |  |  |  | CC50 at 48 h ([4]; THP-1 PMA+, read-out: CC50): > 200 µM; CC50 at 48 h ([4]; THP-1 PMA−, read-out: CC50): > 200 µM
2 | Cc1cn([C@H]2C=C[C@@H](CO)O2)c(=O)[nH]c1=O [d4T, 2′,3′-didehydro-2′,3′-dideoxythymidine] |  | 5.82 µM | 0.528 µM | 2.71 µM | 0.801 µM | 11 fold | 3 fold | 3.95 µM | 6.21 µM | 7.04 µM | 6.55 µM | > 51 | > 32 | > 28 | > 31 | > 200 µM | > 200 µM | > 200 µM |  |  | CC50 at 48 h [5]: > 200 µM; fold increase of anti-HIV-1 activity in PMA+ over PMA− cells ([3]; THP-1): 2 fold
3 | Cc1ccnc2c1NC(=O)c1cccnc1N2C1CC1 [NVP, Nevirapine] | > 200 µM | 0.145 µM | 0.097 µM | 0.124 µM | 0.112 µM | 1 fold | 1 fold | 0.219 µM | 0.369 µM | 0.118 µM | 0.505 µM | > 913 | > 542 | > 1695 | > 396 |  |  |  |  |  | CC50 at 48 h ([4]; PMA-differentiated, non-dividing THP-1 cells (PMA+), THP-1 PMA+, read-out: CC50): > 200 µM; CC50 at 48 h ([4]; undifferentiated THP-1 cells (PMA−), THP-1 PMA−, read-out: CC50): > 200 µM
4 | Nc1nc(O)c2ncn(COC(CO)CO)c2n1 [GCV, 2′-Nor-2′-deoxyguanosine] |  | > 200 µM | 0.876 µM | > 200 µM | > 200 µM |  |  | 0.367 µM | > 200 µM | > 200 µM | > 200 µM | > 545 |  |  |  | > 200 µM | > 200 µM | > 200 µM | no anti-HIV-1 activity | no anti-HIV-1 activity | 
5 | Nc1nc2c(ncn2COCCO)c(=O)[nH]1 [ACV, Acycloguanosine] |  | 50.9 µM | 0.652 µM | > 200 µM | > 200 µM | 78 fold |  | 0.657 µM | > 200 µM | 52.2 µM | > 200 µM | > 304 |  | > 4 |  | > 200 µM | > 200 µM | > 200 µM | no anti-HIV-1 activity | no anti-HIV-1 activity | 

— publication PMC5318888, “SAMHD1 enhances nucleoside-analogue efficacy against HIV-1 in myeloid cells” (Scientific Reports, 2017)
